What was measured:
[1] = molecular target: T1, Mitogen-activated protein kinase kinase kinase 7 (Homo sapiens) (UniProt O43318); experiment: Selectivity interaction (KinomeScan (DiscoverX)) EUB0001049a MAP3K7; settings: at 1 µM
T1 sequence (whole entry): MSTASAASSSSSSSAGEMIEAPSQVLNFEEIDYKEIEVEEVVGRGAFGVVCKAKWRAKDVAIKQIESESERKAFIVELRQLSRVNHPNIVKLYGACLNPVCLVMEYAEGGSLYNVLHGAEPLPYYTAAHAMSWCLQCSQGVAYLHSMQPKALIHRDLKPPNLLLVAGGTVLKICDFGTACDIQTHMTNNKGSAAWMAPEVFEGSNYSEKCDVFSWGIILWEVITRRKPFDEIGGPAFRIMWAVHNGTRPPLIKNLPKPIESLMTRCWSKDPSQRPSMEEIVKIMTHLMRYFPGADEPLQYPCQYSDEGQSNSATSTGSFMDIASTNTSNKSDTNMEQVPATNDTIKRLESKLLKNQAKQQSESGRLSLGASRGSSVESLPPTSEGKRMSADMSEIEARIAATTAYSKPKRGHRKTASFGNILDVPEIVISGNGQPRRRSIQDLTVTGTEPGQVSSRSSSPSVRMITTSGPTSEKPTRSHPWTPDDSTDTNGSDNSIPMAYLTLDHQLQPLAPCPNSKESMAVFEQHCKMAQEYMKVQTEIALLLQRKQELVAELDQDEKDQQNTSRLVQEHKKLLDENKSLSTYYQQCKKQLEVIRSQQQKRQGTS

[2] = molecular target: Tyrosine-protein kinase Lck (Homo sapiens, UniProt P06239); experiment: Selectivity interaction (Panel of kinases, GPCRs, ion channels and transporters (enzymatic assay)) EUB0000266bCl LCK
Sequence of Tyrosine-protein kinase Lck (P06239 2-509 limits assumed): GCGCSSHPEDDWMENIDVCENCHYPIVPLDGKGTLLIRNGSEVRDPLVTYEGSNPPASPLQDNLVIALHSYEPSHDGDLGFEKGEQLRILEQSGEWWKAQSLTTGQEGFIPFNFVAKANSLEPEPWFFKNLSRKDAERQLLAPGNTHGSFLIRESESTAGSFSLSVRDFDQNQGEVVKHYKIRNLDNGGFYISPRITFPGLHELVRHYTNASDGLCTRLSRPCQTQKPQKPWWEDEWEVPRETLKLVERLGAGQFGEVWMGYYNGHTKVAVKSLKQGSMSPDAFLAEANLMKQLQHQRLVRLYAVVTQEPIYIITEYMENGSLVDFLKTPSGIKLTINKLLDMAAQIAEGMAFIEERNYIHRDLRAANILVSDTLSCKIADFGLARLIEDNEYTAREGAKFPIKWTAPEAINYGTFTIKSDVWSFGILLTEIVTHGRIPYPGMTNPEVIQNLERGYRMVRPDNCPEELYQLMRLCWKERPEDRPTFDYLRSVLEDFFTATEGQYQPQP

[3] = molecular target: T2, Dual specificity mitogen-activated protein kinase kinase 4 (Homo sapiens) (UniProt P45985); experiment: Selectivity interaction (KinomeScan (DiscoverX)) EUB0000695a MAP2K4; settings: at 100 nM
T2 sequence (whole entry): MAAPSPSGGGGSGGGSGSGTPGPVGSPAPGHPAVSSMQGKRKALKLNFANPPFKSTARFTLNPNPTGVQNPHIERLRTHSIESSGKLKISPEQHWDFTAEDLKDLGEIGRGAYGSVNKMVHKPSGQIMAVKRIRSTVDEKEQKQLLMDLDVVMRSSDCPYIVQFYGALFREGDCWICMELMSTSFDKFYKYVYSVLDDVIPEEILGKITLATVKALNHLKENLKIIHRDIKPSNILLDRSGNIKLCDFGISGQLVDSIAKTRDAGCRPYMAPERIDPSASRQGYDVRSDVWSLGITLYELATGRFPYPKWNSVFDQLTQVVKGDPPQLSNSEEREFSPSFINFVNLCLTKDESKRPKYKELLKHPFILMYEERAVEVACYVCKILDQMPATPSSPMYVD

[4] = molecular target: Cyclin-dependent kinase 19 (Homo sapiens) (UniProt Q9BWU1); experiment: Selectivity interaction (KinomeScan (DiscoverX)) EUB0001079a CDK19; settings: at 1 µM
Sequence of Cyclin-dependent kinase 19 (Homo sapiens) (Q9BWU1 whole entry): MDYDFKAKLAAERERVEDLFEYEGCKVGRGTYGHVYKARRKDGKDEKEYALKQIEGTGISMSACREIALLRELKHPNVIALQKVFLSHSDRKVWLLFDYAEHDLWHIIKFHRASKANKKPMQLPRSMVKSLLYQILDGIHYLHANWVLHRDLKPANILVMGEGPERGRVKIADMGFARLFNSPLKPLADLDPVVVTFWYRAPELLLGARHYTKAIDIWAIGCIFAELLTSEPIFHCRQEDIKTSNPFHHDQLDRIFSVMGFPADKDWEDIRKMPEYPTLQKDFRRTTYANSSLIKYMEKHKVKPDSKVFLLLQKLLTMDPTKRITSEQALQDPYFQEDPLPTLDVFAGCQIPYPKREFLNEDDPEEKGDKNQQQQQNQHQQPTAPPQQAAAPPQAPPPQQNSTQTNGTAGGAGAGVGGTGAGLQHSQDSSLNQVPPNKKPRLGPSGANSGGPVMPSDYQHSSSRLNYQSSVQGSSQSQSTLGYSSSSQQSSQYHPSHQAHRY

[5] = molecular target: T3, Tyrosine-protein kinase ITK/TSK (Homo sapiens) (UniProt Q08881); experiment: Selectivity interaction (KinomeScan (DiscoverX)) EUB0000045b ITK
T3 sequence (whole entry): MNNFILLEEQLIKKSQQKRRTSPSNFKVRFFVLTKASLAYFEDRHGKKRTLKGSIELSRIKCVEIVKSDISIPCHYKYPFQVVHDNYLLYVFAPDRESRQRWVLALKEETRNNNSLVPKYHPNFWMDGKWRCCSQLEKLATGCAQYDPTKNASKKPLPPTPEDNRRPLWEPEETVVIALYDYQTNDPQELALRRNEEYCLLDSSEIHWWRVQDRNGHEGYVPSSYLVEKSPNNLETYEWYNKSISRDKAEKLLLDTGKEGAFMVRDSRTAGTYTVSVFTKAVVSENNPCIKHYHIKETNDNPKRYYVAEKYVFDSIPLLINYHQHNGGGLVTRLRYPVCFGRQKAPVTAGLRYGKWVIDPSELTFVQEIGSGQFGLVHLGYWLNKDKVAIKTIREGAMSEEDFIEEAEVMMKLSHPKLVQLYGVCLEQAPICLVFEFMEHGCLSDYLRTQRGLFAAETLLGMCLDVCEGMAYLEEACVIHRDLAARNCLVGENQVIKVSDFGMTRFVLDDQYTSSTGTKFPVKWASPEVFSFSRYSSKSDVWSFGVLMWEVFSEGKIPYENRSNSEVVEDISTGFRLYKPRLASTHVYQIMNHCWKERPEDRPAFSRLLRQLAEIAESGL

Q: Which % of control [1] does the source give for `COc1cc(Nc2nc(C)cc(-c3cnn4nc(OC)ccc34)n2)cc(C(F)(F)F)c1` here?
A: 73%

Q: With `CCn1c(-c2nc3cc(C(=O)N4CCCC(N)C4)ccc3n2C)cc2ccccc21` (stereo unspecified) as the molecule, how does the pXC50 [2] read?
A: < 4.5 M

Q: Which % of control [3] does the source give for `Cc1cc(F)c(C(=O)Nc2cccc(-c3nncn3C(C)C)n2)cc1-n1cnc(C2CC2)c1` here?
A: 100%

Q: Which % of control [4] does the source give for `Nc1cnc(N2CCc3cc(S(=O)(=O)Nc4c(F)cc(Cl)cc4F)cc(N4CCCC4=O)c32)nc1` [TP-020n] here?
A: 100%

Q: `C=CC(=O)Nc1cc(-n2c(=O)ccc3cnc4ccc(-c5ccc(NS(C)(=O)=O)cc5)cc4c32)ccc1C` was tested. Which % of control ([5]; at 1 µM) did it give?
A: 52%

Q: What about the % of control ([5]; at 10 µM) of the same molecule?
A: 43%

Reference: ChEMBL document CHEMBL5465560, “Selectivity Literature for EUbOPEN Chemogenomic Library” (2024)
